Literature values as cited in patent US9452178B1, “Acne formulations, treatments, and pressure sensitive patches for delivery of acne formulations” (SatisPharma, LLC, priority 2014, dated 2016).

Settings: complex with polyvinylpyrrolidone; publication by Rhein et al

## O=C(O)c1ccccc1O [salicylic acid]
  permeation through the epidermis: prevents its permeation through the epidermis
